≈ marks a conversion by molar mass, not a printed value. Calls of active or inactive are those of the source. No cut-off for these calls is given here.
Tests used:
[1] = Toxicity in fasted female Sprague-Dawley rat assessed as animal growth rate at 500 mg/kg, IG measured for 14 days (reference value: 29.85 +/- 4.97 g); format: organism-based; settings: in vivo, po, 336 h, time 14 day
Escherichia coli [2] = assay: Induction of cell damage in Escherichia coli ATCC 25922 assessed as fold increase in extracellular ATP concentration at 2 times MIC incubated for 30 mins by fluorescence based analysis relative to control; format: functional; settings: 0.5 h
Acinetobacter baumannii = assay: Antibacterial activity against Acinetobacter baumannii ATCC 19606 assessed as bacterial growth inhibition incubated for 24 hrs by CLSI based broth microdilution method; format: functional
[3] = Toxicity in fasted female Sprague-Dawley rat assessed as relative lung weight ratio at 500 mg/kg, IG measured for 14 days (reference value: 0.534 +/- 0025); format: organism-based; settings: in vivo, po, 336 h, time 14 day
[4] = Toxicity in fasted female Sprague-Dawley rat assessed as relative lung weight ratio at 100 mg/kg, IG measured for 14 days (reference value: 0.534 +/- 0025); format: organism-based; settings: in vivo, po, 336 h, time 14 day
[5] = Toxicity in fasted male Sprague-Dawley rat assessed as animal growth rate at 148 mg/kg, IG measured for 14 days (reference value: 46.53 +/- 3.19 g); format: organism-based; settings: in vivo, po, 336 h, time 14 day
[6] = Toxicity in fasted Sprague-Dawley rat assessed as mortality rate at 500 mg/kg, IG measured for 14 days; format: organism-based; settings: in vivo, po, time 14 day
[7] = Toxicity in fasted male Sprague-Dawley rat assessed as relative testis weight ratio at 500 mg/kg, IG measured for 14 days (reference value: 0.993 +/- 0.052); format: organism-based; settings: in vivo, po, 336 h, time 14 day
Staphylococcus aureus [8] = assay: Bactericidal activity against methicillin-resistant Staphylococcus aureus ATCC 33591 at 2 to 8 times MIC incubated for 8 to 24 hrs by time kill assay relative to control; format: functional; settings: time 8-24 hrs
Staphylococcus aureus [9] = assay: Antibacterial activity against methicillin-resistant Staphylococcus aureus ATCC 33591 infected in neutropenic Kunming mouse model assessed as bacterial load reduction in liver at 10 to 20 mg/kg, ip measured after 2 days; format: functional, organism-based; settings: dose 10-20 mg/kg, time 2.0 day
Escherichia coli [10] = assay: Bactericidal activity against Escherichia coli ATCC 25922 assessed as reduction in colony count at MIC incubated for 24 hrs by time kill assay relative to control; format: functional
Staphylococcus aureus [11] = assay: Inhibition of biofilm formation of methicillin-resistant Staphylococcus aureus ATCC 33591 at MIC incubated for 24 hrs by crystal violet staining based analysis relative to control; format: functional
[12] = Toxicity in fasted male Sprague-Dawley rat assessed as relative kidney weight ratio at 100 mg/kg, IG measured for 14 days (reference value: 0.820 +/- 0.072); format: organism-based; settings: in vivo, po, 336 h, time 14 day
[13] = Toxicity in fasted female Sprague-Dawley rat assessed as body weight at 224 mg/kg, IG measured after 14 days (reference value: 214.3 +/- 9.8 g); format: organism-based; settings: in vivo, po, 336 h, time 14 day
Staphylococcus aureus [14] = assay: Antibacterial activity against methicillin-resistant Staphylococcus aureus ATCC 33591 infected in neutropenic Kunming mouse model assessed as reduction in infection-induced inflammatory cell inflammation in kidney at 10 mg/kg, ip measured after 7 days; format: functional, organism-based; settings: time 7.0 day
Mesomycoplasma hyorhinis = assay: Anti-mycoplasma activity against Mycoplasma hyorhinis BTS-7-NCTC10130 assessed as bacterial growth inhibition incubated for 7 days; format: functional; settings: BTS-7-NCTC10130, 168 h, time 7 day
[15] = Toxicity in fasted female Sprague-Dawley rat assessed as relative lung weight ratio at 224 mg/kg, IG measured for 14 days (reference value: 0.534 +/- 0025); format: organism-based; settings: in vivo, po, 336 h, time 14 day
[16] = Toxicity in fasted female Sprague-Dawley rat assessed as relative spleen weight ratio at 500 mg/kg, IG measured for 14 days (reference value: 0.223 +/- 0.019); format: organism-based; settings: in vivo, po, 336 h, time 14 day
[17] = Toxicity in fasted male Sprague-Dawley rat assessed as relative heart weight ratio at 224 mg/kg, IG measured for 14 days (reference value: 0.396 +/- 0.043); format: organism-based; settings: in vivo, po, 336 h, time 14 day
[18] = Toxicity in fasted male Sprague-Dawley rat assessed as body weight at 148 mg/kg, IG measured on same day (reference value: 212.7 +/- 13.2 g); format: organism-based; settings: in vivo, po
Staphylococcus aureus [19] = assay: Antibacterial activity against Staphylococcus aureus ATCC 25923 assessed as bacterial growth inhibition incubated for 24 hrs by CLSI based broth microdilution method; format: functional
[20] = Toxicity in fasted male Sprague-Dawley rat assessed as body weight at 224 mg/kg, IG measured after 7 days (reference value: 260.5 +/- 12.7 g); format: organism-based; settings: in vivo, po, 168 h, time 7 day
[21] = Toxicity in fasted female Sprague-Dawley rat assessed as relative heart weight ratio at 148 mg/kg, IG measured for 14 days (reference value: 0.429 +/- 0.016); format: organism-based; settings: in vivo, po, 336 h, time 14 day
Staphylococcus aureus [22] = assay: Antibacterial activity against Staphylococcus aureus ATCC 29213 assessed as bacterial growth inhibition incubated for 24 hrs by CLSI based broth microdilution method; format: functional
Escherichia coli [23] = assay: Depolarization of cell membrane in Escherichia coli ATCC 25922 by DiBAC4(3) probe based analysis; format: functional, organism-based
Escherichia coli [24] = assay: Inhibition of biofilm formation of Escherichia coli ATCC 25922 incubated for 24 hrs by crystal violet staining based analysis; format: functional, organism-based
Staphylococcus aureus [25] = assay: Bactericidal activity against methicillin-resistant Staphylococcus aureus ATCC 33591 incubated for 24 hrs by time kill assay; format: functional, organism-based
Staphylococcus aureus [26] = assay: Antibacterial activity against methicillin-resistant Staphylococcus aureus ATCC 33591 infected in neutropenic Kunming mouse model assessed as reduction in infection-induced inflammatory cell inflammation in liver at 10 mg/kg, ip measured after 7 days; format: functional, organism-based; settings: time 7.0 day
[27] = Toxicity in fasted female Sprague-Dawley rat assessed as animal growth rate at 100 mg/kg, IG measured for 14 days (reference value: 29.85 +/- 4.97 g); format: organism-based; settings: in vivo, po, 336 h, time 14 day
[28] = Toxicity in fasted male Sprague-Dawley rat assessed as relative lung weight ratio at 148 mg/kg, IG measured for 14 days (reference value: 0.437 +/- 0.064); format: organism-based; settings: in vivo, po, 336 h, time 14 day
[29] = Toxicity in fasted female Sprague-Dawley rat assessed as relative liver weight ratio at 500 mg/kg, IG measured for 14 days (reference value: 3.199 +/- 0.062); format: organism-based; settings: in vivo, po, 336 h, time 14 day
[30] = Toxicity in fasted female Sprague-Dawley rat assessed as relative spleen weight ratio at 148 mg/kg, IG measured for 14 days (reference value: 0.223 +/- 0.019); format: organism-based; settings: in vivo, po, 336 h, time 14 day
Escherichia coli [31] = assay: Disruption of cell membrane integrity in Escherichia coli ATCC 25922 assessed as appearance of pores on cell membrane at 4 times MIC incubated for 4 hrs by FESEM analysis; format: functional, organism-based
[32] = Toxicity in fasted male Sprague-Dawley rat assessed as relative testis weight ratio at 224 mg/kg, IG measured for 14 days (reference value: 0.993 +/- 0.052); format: organism-based; settings: in vivo, po, 336 h, time 14 day
Staphylococcus aureus [33] = assay: Antibacterial activity against methicillin-resistant Staphylococcus aureus ATCC 33591 infected in neutropenic Kunming mouse model assessed as reduction in infection-induced inflammatory cell infiltration in kidney at 20 mg/kg, ip measured after 7 days; format: functional, organism-based; settings: time 7.0 day
[34] = Toxicity in fasted female Sprague-Dawley rat assessed as body weight at 100 mg/kg, IG measured on same day (reference value: 165.2 +/- 8.1 g); format: organism-based; settings: in vivo, po

For C=C[C@]1(C)C[C@@H](OC(=O)COC(=O)/C=C/c2ccc(N(C)C)cc2)[C@]2(C)[C@H](C)CC[C@]3(CCC(=O)[C@H]32)[C@@H](C)[C@@H]1O, the Activity [1] was 30.22%, the “fold change (FC)” value (Escherichia coli [2]) was 5.35 and the MIC (Acinetobacter baumannii) was 32 µg/mL (≈ 58 µM). For the same compound, the Ratio [3] was 0.503, the Ratio [4] was 0.522 and the Activity [5] was 45.63%. The mortality at 336 h [6] was 10%, the Ratio [7] was 0.956 and the Activity (Staphylococcus aureus [8]) was 100%. The Activity (Staphylococcus aureus [9]) was “Active”, the Activity (Escherichia coli [10]) was 3.99 log10CFU/ml and the “inhibition (INH)” value (Staphylococcus aureus [11]) was 56.51%. The Ratio [12] was 0.822, the Activity [13] was 217.4 g and the Activity (Staphylococcus aureus [14]) was “inactive”. It also gave an MIC (Mesomycoplasma hyorhinis) of 0.004 µg/mL (≈ 0.00725 µM), a Ratio [15] of 0.531 and a Ratio [16] of 0.23. For the same compound, the Ratio [17] was 0.38, the Activity [18] was 208.6 g and the MIC (Staphylococcus aureus [19]) was 1 µg/mL (≈ 1.81 µM). The Activity [20] was 257.1 g, the Ratio [21] was 0.447 and the MIC (Staphylococcus aureus [22]) was 2 µg/mL (≈ 3.63 µM). The Activity (Escherichia coli [23]) was “Dose-Dependent Effect”, the inhibition (Escherichia coli [24]) was “Dose-Dependent Effect” and the Activity (Staphylococcus aureus [25]) was “Dose-Dependent Effect”. For the same compound, the Activity (Staphylococcus aureus [26]) was “inactive”, the Activity [27] was 31.22% and the Ratio [28] was 0.415. For the same compound, the Ratio [29] was 3.203, the Ratio [30] was 0.238 and the Activity (Escherichia coli [31]) was “Active”. For the same compound, the Ratio [32] was 0.981, the Activity (Staphylococcus aureus [33]) was “Active” and the Activity [34] was 163.6 g.

— ChEMBL document CHEMBL5625206, “Design, synthesis, and evaluation of novel pleuromutilin aryl acrylate derivatives as promising broad-spectrum antibiotics especially for combatting multi-drug resistant gram-negative bacteria” (Eur J Med Chem, 2023)
